The IC50 is the concentration that inhibits the measured activity by half. Low readings indicate higher potency, high ones lower potency.

Values joined by “and” are separate entries in the source; they are usually repeats but may differ in a detail not shown here. Equal values may be shown once.

This passage reports IC50 results from patent publication US20100137377A1, “NOVEL COMPOUNDS” (SOREN EBDRUP ET AL, priority 2007, published 2010).

The test deals with T1, h-11βHSD1 (Homo sapiens, UniProt P28845).
T1 construct: made in house
T1 sequence (P28845 whole entry): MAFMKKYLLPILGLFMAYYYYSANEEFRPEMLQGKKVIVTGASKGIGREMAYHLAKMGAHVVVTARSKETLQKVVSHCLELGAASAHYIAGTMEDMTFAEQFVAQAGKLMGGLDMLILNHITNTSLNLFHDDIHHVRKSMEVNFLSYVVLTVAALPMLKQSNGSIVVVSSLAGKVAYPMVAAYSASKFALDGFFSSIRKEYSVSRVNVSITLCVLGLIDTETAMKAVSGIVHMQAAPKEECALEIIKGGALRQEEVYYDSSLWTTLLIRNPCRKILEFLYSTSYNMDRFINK
The test can be described thus: 11βHSD1 enzyme assay (SPA, 3H-cortisone to 3H-cortisol). It is filed as biochemical. As to conditions: extract of yeast transformed with h-11βHSD1; 120 nM 3H-cortisone, 4 mM β-NADPH, 60 min at 30° C.; several determinations per cell separated by ';'. Here is the method: ^3H-cortisone and anti-rabbit Ig coated scintillation proximity assay (SPA) beads were purchased from Amersham Pharmacia Biotech, β-NADPH was from Sigma and rabbit anti-cortisol antibodies were from Fitzgerald. An extract of yeast transformed with h-11βHSD1 (Hutt et al., FEBS Lett., 441, 25 (1998)) was used as the source of enzyme. The test compounds were dissolved in DMSO (10 mM). All dilutions were performed in a buffer containing 50 mM TRIS-HCl (Sigma Chemical Co), 4 mM EDTA (Sigma Chemical Co), 0.1% BSA (Sigma Chemical Co), 0.01% Tween-20 (Sigma Chemical Co) and 0.005% bacitracin (Novo Nordisk A/S), pH=7.4. Optiplate 96 wells plates were supplied by Packard. The amount of ^3H-cortisol bound to the SPA beads was measured on TopCount NXT, Packard.
h-11βHSD1, 120 nM ^3H-cortisone, 4 mM β-NADPH, antibody (1:200), serial dilutions of test compound and SPA particles (2 mg/well) were added to the wells. The reaction was initiated by mixing the different components and was allowed to proceed under shaking for 60 min at 30° C. The reaction was stopped be the addition of 10 fold excess of a stopping buffer containing 500 μM carbenoxolone and 1 μM cortisone. Data was analysed using GraphPad Prism software.
`O=C(NC1C2CC3CC1CC(O)(C3)C2)c1ccc(Oc2ccc(Cl)cc2Cl)cc1` (centres unmarked) [Compound 1, 4-(2,4-Dichloro-phenoxy)-N-(5-hydroxy-adamantan-2-yl)-benzamide]: the IC50 is 73 nM and 81 nM.
As for `N#Cc1ccc(Oc2ccc(C(=O)NC3C4CC5CC3CC(O)(C5)C4)cc2)nc1` (centres unmarked) [Compound 2, 4-(5-Cyano-pyridin-2-yloxy)-N-(5-hydroxy-adamantan-2-yl)-benzamide], the figure is 259 nM and 305 nM; as for `O=C(NC1C2CC3CC1CC(O)(C3)C2)c1ccc(Oc2ccc(Cl)cn2)cc1` (centres unmarked) [Compound 3, 4-(5-Chloro-pyridin-2-yloxy)-N-(5-hydroxy-adamantan-2-yl)-benzamide], 56 nM and 89 nM; as for `O=C(NC1C2CC3CC1CC(CO)(C3)C2)c1ccc(Oc2ccc(Cl)cn2)cc1` (centres unmarked) [Compound 4, 4-(5-Chloro-pyridin-2-yloxy)-N-(5-hydroxymethyl-adamantan-2-yl)-benzamide], 51 nM (2×) and 56 nM.
As for `CN(C(=O)c1ccc(Oc2ccc(Cl)cn2)cc1)C1CCC(CO)CC1` (centres unmarked) [Compound 5, 4-(5-Chloro-pyridin-2-yloxy)-N-(4-hydroxymethyl-cyclohexyl)-N-methyl-benzamide], the figure is 17 nM and 27 nM.
